The nature of series [1]: Cytotoxicity assay (7-AAD, flow cytometry). The format is cell-based, human. The settings on record: human. As for the experimental part:
The human cell lines Jurkat, K562, U937, and HEK293 were obtained from the European Collection of Authenticated Cell Cultures (ECACC) and subsequently cultured in accordance with established standard protocols and sterile techniques. The cells were maintained in RPMI 1640 (for Jurkat, K562, and U937) or DMEM (for HEK293) medium, both of which were supplemented with […], 10% FBS (Sigma, Kanagawa, Japan), and 100 units/mL penicillin-streptomycin (Sigma). Subsequently, the cells were seeded into 24-well plates at a density of 5 × 10^4 cells per well and incubated for 12 h (Jurkat, K562, U937) and 24 h (HEK293).
The viability of the cells was evaluated through the utilization of the 7-AAD (7-aminoactinomycin D) dye (eBioscience™, San Diego, CA, USA). Following a 24 h incubation period with the test substances, the cells were washed with phosphate-salt buffer (PBS) and centrifuged at 400× g for five minutes. The precipitate was resuspended in 200 μL of flow cytometry buffer (PBS without calcium and magnesium, 2.5% FBS) and incubated with a 1 mM 7-AAD dye solution for 15 min in the dark at room temperature. Subsequently, all cell samples were subjected to analysis on a NovoCyte Penteon flow cytometer (Agilent, Santa Clara, CA, USA).
(In flow cytometry, cells or beads pass a laser one at a time.)

Series [2] in a line: Cytotoxicity assay (7-AAD, flow cytometry). The format is cell-based, human. The settings on record: human, Jurkat cells; Jurkat, 24 h incubation. The method, then:
The human cell lines Jurkat, K562, U937, and HEK293 were obtained from the European Collection of Authenticated Cell Cultures (ECACC) and subsequently cultured in accordance with established standard protocols and sterile techniques. […] Subsequently, the cells were seeded into 24-well plates at a density of 5 × 10^4 cells per well and incubated for 12 h (Jurkat, K562, U937) and 24 h (HEK293).
The viability of the cells was evaluated through the utilization of the 7-AAD (7-aminoactinomycin D) dye (eBioscience™, San Diego, CA, USA). Following a 24 h incubation period with the test substances, the cells were washed with phosphate-salt buffer (PBS) and centrifuged at 400× g for five minutes. […] Subsequently, all cell samples were subjected to analysis on a NovoCyte Penteon flow cytometer (Agilent, Santa Clara, CA, USA).

The mark [3] stands for this setting: HEK293 cells, HEK293, 24 h incubation.
Where [4] appears, read: K562 cells, K562, 24 h incubation.
Where [5] appears, read: U937 cells, U937, 24 h incubation.

The source of these data is publication PMC11640419, “New Synthetic Analogs of Natural 5Z,9Z-Dienoic Acids—Hybrid Molecules Based on Oleanolic Acid: Synthesis and Study of Antitumor Activity” (Cancers, 2024).

By CC50 is commonly meant the concentration giving 50% cytotoxicity. Consider `CC1(C)CC[C@]2(C(=O)O)CC[C@]3(C)C(=CC[C@@H]4[C@@]5(C)CC[C@H](O)C(C)(C)[C@@H]5CC[C@]43C)[C@@H]2C1` [Oleanoic acid, Oleanolic acid], for which the CC50 at 24 h in series [1] (setting [3]) came to 497 ± 39.8 µM; in series [1] (setting [4]), 171 ± 16.5 µM; in series [1] (setting [5]) it was 144 ± 14.3 µM; in series [2], 199 ± 18.4 µM.
For the molecule `CC(=O)O[C@H]1CC[C@@]2(C)C(CC[C@]3(C)C2CC=C2C4CC(C)(C)CC[C@]4(C(=O)Nc4c(C)n(C)n(-c5ccccc5)c4=O)CC[C@]23C)C1(C)C` (stereo partly shown) [compound 7b], the cytotoxic concentration (CC50) at 24 h was found to be 218 ± 20.7 µM in series [1] (setting [3]), 81.3 ± 7.98 µM in series [1] (setting [4]), 72.2 ± 7.34 µM in series [1] (setting [5]) and 86.5 ± 8.46 µM in series [2].
The matching figures for `CC(=O)O[C@H]1CC[C@@]2(C)C(CC[C@]3(C)C2CC=C2C4CC(C)(C)CC[C@]4(C(=O)NC45CC6CC(CC(C6)C4)C5)CC[C@]23C)C1(C)C` (stereo partly shown) [compound 7c]: 366 ± 34.7 µM, 104 ± 10.6 µM, 98.9 ± 9.54 µM and 121 ± 11.8 µM.
Consider `CC(=O)O[C@H]1CC[C@@]2(C)C(CC[C@]3(C)C2CC=C2C4CC(C)(C)CC[C@]4(C(=O)NC(C)C45CC6CC(CC(C6)C4)C5)CC[C@]23C)C1(C)C` (stereo partly shown) [compound 7d], for which the CC50 at 24 h was found to be 342 ± 33.8 µM in series [1] (setting [3]), 99.9 ± 9.38 µM in series [1] (setting [4]), 97.1 ± 8.96 µM in series [1] (setting [5]) and 120 ± 11.8 µM in series [2].
Turning to `CC(=O)O[C@H]1CC[C@@]2(C)C(CC[C@]3(C)C2CC=C2C4CC(C)(C)CC[C@]4(C(=O)NCc4cccs4)CC[C@]23C)C1(C)C` (stereo partly shown) [compound 7e], the CC50 at 24 h in series [1] (setting [3]) worked out at 438 ± 42.6 µM; in series [1] (setting [4]), 125 ± 11.9 µM; in series [1] (setting [5]), 108 ± 11 µM; in series [2], 131 ± 12.5 µM.
The matching figures for `CC(=O)O[C@H]1CC[C@@]2(C)C(CC[C@]3(C)C2CC=C2C4CC(C)(C)CC[C@]4(C(=O)Nc4nccs4)CC[C@]23C)C1(C)C` (stereo partly shown) [compound 7f]: 494 ± 42.2 µM, 144 ± 12.8 µM, 132 ± 12.9 µM and 152 ± 14.1 µM.
Taken in the same sequence, the figures for `CC(=O)O[C@H]1CC[C@@]2(C)C(CC[C@]3(C)C2CC=C2C4CC(C)(C)CC[C@]4(C(=O)Nc4ccncc4)CC[C@]23C)C1(C)C` (stereo partly shown) [compound 7g] were 430 ± 41.9 µM, 125 ± 11.9 µM, 112 ± 12.3 µM and 143 ± 14.3 µM.
The matching figures for `CC(=O)O[C@H]1CC[C@@]2(C)C(CC[C@]3(C)C2CC=C2C4CC(C)(C)CC[C@]4(C(=O)Nc4cc(C)on4)CC[C@]23C)C1(C)C` (stereo partly shown) [compound 7h]: 489 ± 44.8 µM, 139 ± 12.9 µM, 129 ± 11.7 µM and 146 ± 14 µM.
`CC(=O)O[C@H]1CC[C@@]2(C)C(CC[C@]3(C)C2CC=C2C4CC(C)(C)CC[C@]4(C(=O)Nc4cccc5cccnc45)CC[C@]23C)C1(C)C` (stereo partly shown) [compound 7i]: the 50% cytotoxic concentration (CC50) at 24 h came to 456 ± 42.7 µM in series [1] (setting [3]), 133 ± 12.9 µM in series [1] (setting [4]), 122 ± 12.8 µM in series [1] (setting [5]) and 153 ± 13.9 µM in series [2].
Taken in the same sequence, the figures for `Cn1nccc1NC(=O)[C@]12CCC(C)(C)CC1C1=CCC3[C@@]4(C)CC[C@H](O)C(C)(C)C4CC[C@@]3(C)[C@]1(C)CC2` (stereo partly shown) [compound 8a] were 110 ± 10.3 µM, 20.4 ± 2.11 µM, 19.6 ± 1.96 µM and 23.8 ± 2.84 µM.
Taken in the same sequence, the figures for `Cc1c(NC(=O)[C@]23CCC(C)(C)CC2C2=CCC4[C@@]5(C)CC[C@H](O)C(C)(C)C5CC[C@@]4(C)[C@]2(C)CC3)c(=O)n(-c2ccccc2)n1C` (stereo partly shown) [compound 8b] were 267 ± 22.7 µM, 94.8 ± 9.57 µM, 85.4 ± 8.64 µM and 98.7 ± 9.39 µM.
For the molecule `CC1(C)CC[C@]2(C(=O)NC34CC5CC(CC(C5)C3)C4)CC[C@]3(C)C(=CCC4[C@@]5(C)CC[C@H](O)C(C)(C)C5CC[C@]43C)C2C1` (stereo partly shown) [compound 8c], the CC50 at 24 h in series [1] (setting [3]) worked out at 414 ± 39.5 µM; in series [1] (setting [4]), 94.7 ± 8.68 µM; in series [1] (setting [5]), 57.6 ± 6.49 µM; in series [2], 115 ± 12.1 µM.
Taken in the same sequence, the figures for `CC(NC(=O)[C@]12CCC(C)(C)CC1C1=CCC3[C@@]4(C)CC[C@H](O)C(C)(C)C4CC[C@@]3(C)[C@]1(C)CC2)C12CC3CC(CC(C3)C1)C2` (stereo partly shown) [compound 8d] were 398 ± 37.6 µM, 93.8 ± 8.91 µM, 58.1 ± 6.26 µM and 110 ± 11.6 µM.
The matching figures for `CC1(C)CC[C@]2(C(=O)NCc3cccs3)CC[C@]3(C)C(=CCC4[C@@]5(C)CC[C@H](O)C(C)(C)C5CC[C@]43C)C2C1` (stereo partly shown) [compound 8e]: 593 ± 53.9 µM, 149 ± 12.6 µM, 122 ± 12 µM and 165 ± 14.2 µM.
Taken in the same sequence, the figures for `CC1(C)CC[C@]2(C(=O)Nc3nccs3)CC[C@]3(C)C(=CCC4[C@@]5(C)CC[C@H](O)C(C)(C)C5CC[C@]43C)C2C1` (stereo partly shown) [compound 8f] were 611 ± 57.7 µM, 168 ± 17.1 µM, 157 ± 15 µM and 189 ± 17.4 µM.
On to `CC1(C)CC[C@]2(C(=O)Nc3ccncc3)CC[C@]3(C)C(=CCC4[C@@]5(C)CC[C@H](O)C(C)(C)C5CC[C@]43C)C2C1` (stereo partly shown) [compound 8g], for which the CC50 at 24 h in series [1] (setting [3]) stood at 443 ± 40.3 µM; in series [1] (setting [4]) it was 137 ± 12.4 µM; in series [1] (setting [5]) it was 135 ± 12.8 µM; in series [2], 160 ± 14.3 µM.
Taken in the same sequence, the figures for `Cc1cc(NC(=O)[C@]23CCC(C)(C)CC2C2=CCC4[C@@]5(C)CC[C@H](O)C(C)(C)C5CC[C@@]4(C)[C@]2(C)CC3)no1` (stereo partly shown) [compound 8h] were 598 ± 59 µM, 161 ± 16.4 µM, 155 ± 15.2 µM and 179 ± 17.1 µM.
Taken in the same sequence, the figures for `CC1(C)CC[C@]2(C(=O)Nc3cccc4cccnc34)CC[C@]3(C)C(=CCC4[C@@]5(C)CC[C@H](O)C(C)(C)C5CC[C@]43C)C2C1` (stereo partly shown) [compound 8i] were 515 ± 40.3 µM, 155 ± 12.9 µM, 142 ± 12.5 µM and 165 ± 14.3 µM.
The matching figures for `Cc1c(NC(=O)[C@]23CCC(C)(C)CC2C2=CCC4[C@@]5(C)CC[C@H](OC(=O)CCC/C=C\CC/C=C\CCCC(=O)O)C(C)(C)C5CC[C@@]4(C)[C@]2(C)CC3)c(=O)n(-c2ccccc2)n1C` (stereo partly shown) [compound 9b]: 21.4 ± 2.33 µM, 5.76 ± 0.69 µM, 4.86 ± 0.42 µM and 6.11 ± 0.56 µM.
For `CC1(C)CC[C@]2(C(=O)NC34CC5CC(CC(C5)C3)C4)CC[C@]3(C)C(=CCC4[C@@]5(C)CC[C@H](OC(=O)CCC/C=C\CC/C=C\CCCC(=O)O)C(C)(C)C5CC[C@]43C)C2C1` (stereo partly shown) [compound 9c], the CC50 at 24 h was 167 ± 15.5 µM in series [1] (setting [3]), 49.2 ± 5.01 µM in series [1] (setting [4]), 29.4 ± 3.18 µM in series [1] (setting [5]) and 54.4 ± 5.88 µM in series [2].
Taken in the same sequence, the figures for `CC1(C)CC[C@]2(C(=O)NCc3cccs3)CC[C@]3(C)C(=CCC4[C@@]5(C)CC[C@H](OC(=O)CCC/C=C\CC/C=C\CCCC(=O)O)C(C)(C)C5CC[C@]43C)C2C1` (stereo partly shown) [compound 9e] were 195 ± 17.9 µM, 69.8 ± 6.99 µM, 56.4 ± 5.11 µM and 76.3 ± 7.25 µM.
With `CC1(C)CC[C@]2(C(=O)Nc3nccs3)CC[C@]3(C)C(=CCC4[C@@]5(C)CC[C@H](OC(=O)CCC/C=C\CC/C=C\CCCC(=O)O)C(C)(C)C5CC[C@]43C)C2C1` (stereo partly shown) [compound 9f], the CC50 at 24 h was determined as 205 ± 19.7 µM in series [1] (setting [3]), 84.4 ± 8.47 µM in series [1] (setting [4]), 79.7 ± 6.78 µM in series [1] (setting [5]) and 96.7 ± 9.18 µM in series [2].
Consider `CC1(C)CC[C@]2(C(=O)Nc3ccncc3)CC[C@]3(C)C(=CCC4[C@@]5(C)CC[C@H](OC(=O)CCC/C=C\CC/C=C\CCCC(=O)O)C(C)(C)C5CC[C@]43C)C2C1` (stereo partly shown) [compound 9g], for which the CC50 at 24 h in series [1] (setting [3]) turned out to be 223 ± 21.8 µM; in series [1] (setting [4]), 72.1 ± 6.39 µM; in series [1] (setting [5]) it was 61.2 ± 6.48 µM; in series [2], 80.4 ± 7.86 µM.
In the case of `Cc1cc(NC(=O)[C@]23CCC(C)(C)CC2C2=CCC4[C@@]5(C)CC[C@H](OC(=O)CCC/C=C\CC/C=C\CCCC(=O)O)C(C)(C)C5CC[C@@]4(C)[C@]2(C)CC3)no1` (stereo partly shown) [compound 9h], the CC50 at 24 h is 213 ± 18.3 µM in series [1] (setting [3]), 81.5 ± 7.62 µM in series [1] (setting [4]), 72.3 ± 6.85 µM in series [1] (setting [5]) and 91.2 ± 8.34 µM in series [2].
The matching figures for `CC1(C)CC[C@]2(C(=O)Nc3cccc4cccnc34)CC[C@]3(C)C(=CCC4[C@@]5(C)CC[C@H](OC(=O)CCC/C=C\CC/C=C\CCCC(=O)O)C(C)(C)C5CC[C@]43C)C2C1` (stereo partly shown) [compound 9i]: 262 ± 22.7 µM, 77.3 ± 6.85 µM, 62.9 ± 5.91 µM and 84.7 ± 8.21 µM.
